Like-named read-outs stand apart in the source and are kept apart here.
Assays:
[1] = Forced degradation studies of MTG; type: physicochemical; settings: over 24 h
Description: Samples were taken at 6, 12 and 24 h for dissolution and/or dilution before HPLC analysis (Sect. HPLC analysis).
(§1) Samples were analysed using Shimadzu liquid chromatographic system (Kyoto, Japan) with SPD-20A UV–vis detector set at 254 nm. A reverse phase ZORBAX Eclipse Plus C18 column (Agilent Technologies, 150 × 4.6 mm ID × 3.5 μm) coupled with a C18 guard column (Phenomenex SecurityGuard™, 4 × 3.0 mm ID × 5 μm) was employed as the stationary phase. A gradient elution method with acetonitrile and 0.1%v/v of formic acid as the mobile phase (30:70 to 70:30 (v/v) over 1 min and held until 4 min; then returned to 30:70 (v/v) from 4 to 6 min and held up until 10 min) at a flow rate of 1.2 mL/min was used. The injection volume was set at 100 μL and the total run time was 10 min with a retention time of ~ 4 min.

[2] = Stability of MTG in PBS receptor medium with antioxidants (DTT, ascorbic acid); type: physicochemical; settings: 32 °C
Description: The drug content was analysed using HPLC (Sect. HPLC analysis) at 24, 48, 72 and 96 h.
as §1, with “min. The limits of detection and quantification were 0.47 and 1.43 μg/mL for a lower concentration drug range (0.5–10 μg/mL) and 4.29 and 13.01 μg/mL for a higher concentration drug range (10–175 μg/mL), respectively. The linearity for both calibration curves was excellent (R^2 > 0.999).” for “min.”

[3] = In vitro skin permeation of MTG from gel formulations, with infinite dose model fitting; type: in vitro ADME, porcine; settings: for Permeation (cumulative amount of MTG permeated): 48 h
Description: (§2) The in vitro permeation study was performed in triplicate using Franz diffusion cell apparatus with a diffusion area of ~ 0.8 cm^2 and a receptor volume of ~ 3 mL. The porcine skin was thawed at room temperature and cut into an appropriate size before mounting on the Franz diffusion cells. The receptor compartment was filled with PBS containing 0.02%w/v of sodium azide and a selected antioxidant. The Franz diffusion cells were placed into a water bath to maintain the skin temperature at 32 ± 0.5 °C. […] After 48-h permeation studies, the mass balance studies were performed. The samples were extracted for MTG content overnight before HPLC analysis.
To estimate the permeation parameters (P1 and P2), the in vitro permeation data were fitted to the infinite dose model (Eq. 1) using non-linear least squares. This infinite dose model was obtained by solving the diffusion equation using Laplace transform, which was subsequently numerically inverted using Weeks method and fitted to in Python 3.13.3 (Python Software Foundation, Wilmington, DE, US).1 Q¯s=J·A/s=P1ACd/ss/P2sinhs/P2
Here, Q¯s is the cumulative amount of drug permeated, J is the permeation flux, A is the permeation area, Cd is the initial concentration, h is the membrane thickness and s is the Laplace variable. The apparent partition and apparent diffusion coefficients, P1 and P2, are related to the h and the diffusion (D) and partition (K) coefficients, as defined in Eq. 2 and Eq. 3 [32]. The goodness of fit was measured based on the coefficient of determination (R^2) and root mean square error (RMSE).2 P1=Kh 3 P2=D/h^2
The permeability coefficient (Kp), steady-state flux (Jss) and lag time (tlag) can then be calculated using Eqs. 4, 5, and 6 [33] with the estimated values of P1 and P2 from the curve fitting.4 Kp=P1P2 5 Jss=KpCd 6 tlag=h^2/6D
Other permeation parameters were determined experimentally, where A was 0.7–0.8 cm^2, h was 0.0586 cm, Cd was 50 mg/mL and the volume of drug loaded was 40 µL.
(§3) BHT at the optimised concentration was also added accordingly. The gels were evaluated for their drug content by mixing the gel in methanol for overnight extraction of MTG before HPLC analysis (Sect. HPLC analysis). In vitro drug release studies were carried out with a similar experimental setup as described in Sect. In vitro permeation and mass balance studies but porcine skin was replaced with a 0.45 µm nylon membrane filter and 40 μL of gel was loaded on the membrane at the donor compartment. Subsequent in vitro permeation and mass balance studies were performed as described in Sect. In vitro permeation and mass balance studies by loading 40 μL of the gel on the skin.

[4] = Mass balance studies after skin permeation of MTG gels; type: in vitro ADME, porcine; settings: pig
Description: as §2
Immediately post-application, any remaining MTG was swabbed from the skin surface with cotton buds and added into an Eppendorf tube. Subsequently, the surface of the skin was washed twice with 500 μL of methanol before adding to the same Eppendorf tube containing the cotton buds. The skin was removed from the dissembled Franz diffusion cell and cut into pieces before placing in another Eppendorf tube containing 1 mL of methanol. All samples were vortexed and analysed using HPLC (Sect. HPLC analysis).
as §3

[5] = rats; cited from earlier work
[6] = beagle dogs; cited from earlier work
[7] = cited from earlier work

In the case of `CC[C@@H]1CN2CCc3c([nH]c4cccc(OC)c34)[C@@H]2C[C@@H]1/C(=C\OC)C(=O)OC` [MTG, mitragynine], the “Degradation of MTG” value ([1]; oxidative and alkaline conditions) is reported as ~ 95%, the “Degradation of MTG” value ([1]; thermal degradation) is reported as ~ 90% and the “Percentage recovery of MTG” value ([2]; 50 µg/mL in PBS with DTT (0.01-0.1%w/v), 96 h, lowest recovery) is reported as ~ 81%. The “Percentage recovery of MTG” value ([2]; 50 µg/mL in PBS with ascorbic acid (0.01-0.1%w/v, regardless of concentration), 96 h) was greater than 99%, the “Percentage recovery of MTG” value ([2]; 50 µg/mL in PBS without antioxidant, after 96 h) was ~ 96% and the “Permeation (cumulative amount of MTG permeated)” value (“Permeation” for short) ([3]; 1% MTG gel with DMSO and BHT) was 4.76 ± 0.79 μg/cm^2. The “Jss (steady-state flux)” value ([3]; 1% MTG gel with PG and BHT) was 0.95 μg/cm^2/h, the “Permeation” value ([3]; 1% MTG gel with PG and BHT) was 4.92 ± 0.44 μg/cm^2 and the “Permeation” value ([3]; 1% MTG gel with Transcutol and BHT) was 3.95 ± 0.81 μg/cm^2. The “tlag (lag time)” value ([3]; across all gel formulations) was 9 to 14 h, the Papp at 1 % ([3]; pig, 1% MTG gel with DMSO and BHT, read-out: Kp (permeability coefficient) (converted)) was 0.00447 ×10⁻⁶ cm/s and the Papp at 1 % ([3]; pig, 1% MTG gel with PG and BHT, read-out: Kp (permeability coefficient) (converted)) was 0.00525 ×10⁻⁶ cm/s. It also gave a Papp at 48 h, 1 % ([3]; pig, 1% MTG gel with Transcutol and BHT, read-out: Kp (permeability coefficient) (converted)) of 0.00376 ×10⁻⁶ cm/s, a recovery at 48 h, 1 % ([4]; 1% MTG gel with DMSO and BHT, read-out: Total percentage (mass balance recovery)) of 81.3 ± 24.3% and a recovery at 48 h, 1 % ([4]; 1% MTG gel with PG and BHT, read-out: Total percentage (mass balance recovery)) of 85.5 ± 16.1%. The recovery at 48 h, 1 % ([4]; 1% MTG gel with Transcutol and BHT, read-out: Total percentage (mass balance recovery)) was 87.7 ± 10.8%, the recovery at 48 h, 1 % ([4]; all gel formulations (DMSO, PG, Transcutol) with BHT, read-out: Total drug recovery (mass balance)) was greater than 80% and the Oral bioavailability [5] was 3%. The Oral bioavailability [6] was 69.6%, the MTG loss ([7]; basic environments (pH 8 and 10), 40 °C over 8 h) was no more than 20% and the MTG loss ([7]; pH 4 over 24 h) was ~ 11.2%.

— paper PMC12507957 (Drug Delivery and Translational Research, 2025)
